Test results reported in patent US20090214507A1, “METHOD OF TREATING PREVENTING, INHIBITING OR REDUCING DAMAGE TO CARDIAC TISSUE” (RegeneRx Biopharmaceuticals, Inc., priority 2004, published 2009).

How the values were obtained:
ILK / Akt [1] = experiment: western blot of heart lysates after coronary ligation; format: in vivo, mouse
Method: Because thymosin β4 upregulates ILK activity and Akt phosphorylation in cultured cells, the effects on these kinases in vivo were tested. […] Total Akt protein was not increased.
(§1) Myocardial infarction was produced in fifty-eight male C57BL/6J mice at 16 weeks of age (25-30 g) by ligation of the left anterior descending coronary artery as previously described. Twenty-nine of the ligated mice received thymosin β4 treatment immediately following ligation and the remaining twenty-nine received PBS injections. Treatment was given intracardiac with thymosin β4 (200 ng in 10 ul collagen) or with 10 ul of collagen; intraperitoneally with thymosin β4 (150 μg in 300 μl PBS) or with […]; or by both intracardiac and intraperitoneal injections. Intraperitoneal injections were given every three days until mice were sacrificed. Doses were based on previous studies of thymosin β4 biodistribution. Hearts were removed, weighed and fixed for histologic sectioning. Additional mice were operated on in a similar fashion for studies 0.5, 1, 3, 6 and 11 days after ligation.

[2] = system: primary rat neonatal cardiomyocytes; experiment: primary neonatal cardiomyocyte culture on laminin-coated glass; format: cell-based
Method: (§2) To test the response of post-natal cardiomyocytes, primary rat neonatal cardiomyocytes were cultured on laminin-coated glass and treated the cells with phosphate buffered saline (PBS) or thymosin β4.
Primary culture of neonatal cardiomyocytes typically survived for approximately one to two weeks with some cells beating up to two weeks when grown on laminin-coated slides in our laboratory. […] In addition, the rate of beating was consistently faster in thymosin β4-treated neonatal cardiomyocytes (95 vs. 50 beats per minute, p<0.02), indicating either a change in cell-cell communication or more vigorous cardiomyocytes.

embryonic heart explants = experiment: embryonic heart explant collagen gel migration assay; format: cell-based, mouse
Method: To test the effects of secreted thymosin β4 on cardiac cell migration, an embryonic heart explant system designed to assay cell migration and transformation events on a three-dimensional collagen gel was utilized. In this assay, explants of adjacent embryonic myocardium and endocardium from valve-forming regions were placed on a collagen gel with the endocardium adjacent to the collagen.
as §2
To determine if activation of ILK was necessary for the observed effects of thymosin β4, a well-described ILK inhibitor, wortmannin, was employed, which inhibits ILK's upstream kinase, phosphatidylinositol 3-kinase (PI3-kinase). Using myocardial cell migration and beating frequency as assays for thymosin β4 activity, embryonic heart explants were cultured as described above in the presence of thymosin β4 with or without wortmannin.
Outflow tract was dissected from E11.5 wild type mouse embryos and placed on collagen matrices as previously described. After 10 hours of attachment explants were incubated in 30 ng/300 μl thymosin β4 in PBS, PBS alone or thymosin β4 and 100 nM wortmannin. Cultures were carried out for 3-9 days at 37° C. 5% CO2 and fixed in 4% paraformaldehyde in PBS for 10 min at RT. Cells were counted for quantification of migration and distance using at least three separate explants under each condition for endothelial migration and eight separate explants for myocardial migration.
Paraformaldehyde-fixed explants were permeabilized for 10 min at RT with Permeabilize solution (10 mM PIPES pH6.8; 50 mMNaC1; 0.5% Triton X-100; 300 mM Sucrose; 3 mM MgC12) and rinsed with PBS 2×5 min at RT. After a series of blocking and rinsing steps, detection antibodies were used and explants rinsed and incubated with Equilibration buffer (Anti-Fade kit) 10 min at room temperature. Explants were scooped to a glass microscope slide, covered, and examined by fluorescein microscopy. TUNEL assay was performed using ApopTag Plus Fluorescein In Situ Apoptosis detection kit (Intergen Company #S7111) as recommended.

[3] = molecular target: T1, integrin linked kinase (ILK) (Homo sapiens, UniProt Q13418); experiment: coimmunoprecipitation with ILK; format: binding; conditions: coimmunoprecipitation in transfected cultured cells
T1 construct: expressed in transfected cells; host or cells: Cos and 10T1/2 cells
T1 sequence (Q13418 1-452): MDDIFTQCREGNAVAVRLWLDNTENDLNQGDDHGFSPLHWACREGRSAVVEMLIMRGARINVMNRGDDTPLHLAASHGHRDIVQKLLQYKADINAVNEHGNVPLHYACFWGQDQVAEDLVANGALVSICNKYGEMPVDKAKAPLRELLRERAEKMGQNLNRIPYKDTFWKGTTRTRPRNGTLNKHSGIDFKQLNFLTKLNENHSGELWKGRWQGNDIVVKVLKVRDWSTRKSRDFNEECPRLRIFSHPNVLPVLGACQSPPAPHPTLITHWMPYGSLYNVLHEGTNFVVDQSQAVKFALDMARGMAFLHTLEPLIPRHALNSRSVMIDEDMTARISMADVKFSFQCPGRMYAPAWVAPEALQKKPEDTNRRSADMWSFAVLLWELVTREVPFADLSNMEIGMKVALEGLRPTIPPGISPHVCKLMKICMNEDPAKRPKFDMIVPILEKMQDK
Source text: (§3) To investigate the potential mechanisms through which thymosin β4 might be influencing cell migration and survival events, thymosin β4 interacting proteins were searched. The amino-terminus of thymosin β4 was fused with affi-gel beads resulting in exposure of the carboxy-terminus that allowed identification of previously unknown interacting proteins but prohibited association with actin. An E9.5-12.5 mouse heart T7 phage cDNA library was synthesized and screened by phage display and thymosin β4-interacting clones were enriched and confirmed by ELISA. […] PINCH and integrin linked kinase (ILK) interact directly with one another and indirectly with the actin cytoskeleton as part of a larger complex involved in cell-extracellular matrix interactions known as the focal adhesion complex. PINCH and ILK are required for cell motility and for cell survival, in part by promoting phosphorylation of the serine-threonine kinase Akt/protein kinase B, a central kinase in survival and growth signaling pathways. […] The PINCH interaction with thymosin β4 mapped to the fourth and fifth LIM domains of PINCH while the amino terminal ankryin domain of ILK was sufficient for thymosin β4 interaction.
Cos and 10 T1/2 cells were transfected with thymosin β4, PINCH and/or ILK and lysates precipitated with antibodies to each as previously described. […]

ILK / Akt [4] = experiment: ILK localization, expression and activation (immunocytochemistry, Western); format: cell-based
Method: Because recruitment of ILK to the focal adhesion complex is important for its activation, the effects of thymosin β4 on ILK localization and expression were assayed. […] Because thymosin β4 sequesters the pool of G-actin monomers, the effects on ILK activation were dependent on thymosin β4's role in regulating the balance between polymerized F-actin and monomeric G-actin were tested.

[5] = system: myocardial infarction in adult mice; experiment: myocardial infarction by coronary artery ligation, echocardiography and histology; format: in vivo, mouse
Method: Because of thymosin β4's effects on survival and migration of cardiomyocytes cultured in vitro and phosphorylation of Akt, it was tested whether thymosin β4 might aid in cardiac repair in vivo after myocardial damage. Myocardial infarctions in fifty-eight adult mice were created by coronary artery ligation and treated half with systemic, intracardiac, or systemic plus intracardiac thymosin β4 immediately after ligation and the other half with PBS. Intracardiac injections were done with collagen (control) or collagen mixed with thymosin β4. All forty-five mice that survived two weeks later were interrogated for cardiac function by random-blind ultrasonography at 2 and 4 weeks after infarction by multiple measurements of cardiac contraction. […] Control cardiac injections were performed with the same collagen vehicle making it unlikely that an endogenous reaction to the injection contributed to the cardiac recovery.
To determine the manner in which […] improved cardiac function, multiple serial histologic sections of hearts treated with or without thymosin β4 were examined. […] TUNEL positive cells that were also myocytes were rare in the thymosin β4 group but abundant in the control hearts. […] Thus, the decreased scar volume and preserved function of thymosin β4 treated mice were likely due to early preservation of myocardium after infarction through thymosin β4's effects on survival of cardiomyocytes.
Embryonic or adult cardiac tissue was embedded in paraffin and sections used for immunohistochemistry. […] Adult hearts were sectioned at ten equivalent levels from the base of the heart to the apex. Serial sections were used for trichrome sections and reaction with sarcomeric a-actinin, c-kit, Sca-1, Abcg2, and BrdU antibodies and for TUNEL assay (Intergen Company #S7111).
as §1
Echocardiograms to assess systolic function were performed using M-mode and 2-dimensional measurements as described previously. The measurements represented the average of six selected cardiac cycles from at least two separate scans performed in random-blind fashion with papillary muscles used as a point of reference for consistency in level of scan. End diastole was defined as the maximal left ventricle (LV) diastolic dimension and end systole was defined as the peak of posterior wall motion. Single outliers in each group were omitted for statistical analysis. Fractional shortening (FS), a surrogate of systolic function, was calculated from LV dimensions as follows: FS=EDD−ESD/EDD×100%. Ejection fraction (EF) was calculated from two-dimensional images. EDD, end diastolic dimension; ESD, end systolic dimension.
Scar volume was calculated using six sections through the heart of each mouse using Openlab 3.03 software (Improvision) similar to previously described. Percent area of collagen deposition was measured on each section in blinded fashion and averaged for each mouse.

[6] = system: cardiac endothelial cells; experiment: collagen gel assay, transformation of cardiac endothelial cells to mesenchymal cells; format: cell-based; conditions: Tβ4 at physiological concentrations
Method: Synthetic Tβ4 and an antibody to Tβ4 was provided by RegeneRx Biopharmaceuticals, Inc. (3 Bethesda Metro Center, Suite 700, Bethesda, Md. 20814) and were tested in a collagen gel assay to determine their effects on the Transformation of cardiac endothelial cells to mesenchymal cells. It is well established that development of heart valves and other cardiac tissue are formed by epithelial-mesenchymal transformation and that defects in this process can cause serious cardiovascular malformation and injury during development and throughout life. […] Transformation of atrioventricular endocardium into invasive mesenchyme is an aspect of the formation and maintenance of normal cardiac tissue and in the formation of heart valves.

PINCH = molecular target: T2, PINCH (Mus musculus, UniProt Q99JW4); experiment: phage display ELISA and coimmunoprecipitation with PINCH; format: binding; conditions: ELISA; coimmunoprecipitation in transfected cultured cells
T2 construct: made in house; host or cells: T7 phage amplified in E. coli BLT5615
T2 sequence (Q99JW4 whole entry): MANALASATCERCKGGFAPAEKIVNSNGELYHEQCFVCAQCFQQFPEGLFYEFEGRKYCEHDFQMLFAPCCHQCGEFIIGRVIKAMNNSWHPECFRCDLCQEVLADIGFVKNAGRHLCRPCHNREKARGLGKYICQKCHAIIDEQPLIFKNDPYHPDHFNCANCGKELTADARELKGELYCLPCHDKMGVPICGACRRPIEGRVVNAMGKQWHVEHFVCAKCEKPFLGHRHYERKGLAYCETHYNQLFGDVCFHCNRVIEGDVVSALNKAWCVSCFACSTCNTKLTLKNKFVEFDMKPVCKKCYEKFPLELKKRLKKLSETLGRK
Source text: as §3
300 ul of Affi-Gel 15 (Bio-Rad Laboratories) was coupled with 12 ug of synthesized thymosin β4 protein (RegeneRx) following the manufacturers manual, likely via amino terminal lysine residues. […]

[7] = four weeks after infarction, versus control

thymosin β4
total Akt protein (ILK / Akt [1]): not increased | level of ILK protein in heart lysates (ILK / Akt [1]; compared with PBS treated mice): increased | amount of phosphorylated Akt-5473 (ILK / Akt [1]; phospho-specific antibodies): elevation | migrational distance of neonatal cardiomyocytes ([2]; compared to control, p<0.05): significantly increased | survival in culture, rhythmically contracting myocytes visible ([2]; control cultures survive approximately one to two weeks): up to 28 days | rate of beating ([2]; vs. 50 in control, p<0.02): 95 beats per minute | number of migrating endothelial cells (embryonic heart explants; E11.5 explants, compared to PBS, p<0.01): increased number of migrating endothelial cells | cell death (TUNEL assay) in migrated cells (embryonic heart explants; compared to control cells): No significant difference | proliferative rate (phosho-histone H3 immunostaining) in migrated cells (embryonic heart explants; compared to control cells): No significant difference | migration of myocardial cells away from the explant (embryonic heart explants; thymosin β4 added to primary explants on collagen gel): a large number of spontaneously beating, cardiac muscle actin-positive cells had migrated away from the explant | interaction with ILK [3]: weaker than with PINCH | ILK protein levels (Western analysis) (ILK / Akt [4]; C2C12 cells): modest increase | total Akt protein (ILK / Akt [4]; C2C12 cells): unchanged | phosphorylation of Akt (serine 473) (ILK / Akt [4]; C2C12 cells, phospho-specific antibody): increased phosphorylation | ILK detection by immunocytochemistry (ILK / Akt [4]; embryonic heart explants or C2C12 myoblasts, 10 ng/100 ul synthetic protein or expressing plasmid): markedly enhanced around the cell edges | cardiac dilation after infarction (EDD and ESD) ([5]; EDD and ESD significantly higher in control group): decreased cardiac dilation | mean ejection fraction ([5]; four weeks after infarction, n=23, 95% confidence interval, control 28.2): 57.7+/−3.2% | mean left ventricle fractional shortening ([5]; four weeks after infarction, n=23, 95% confidence intervals, control 23.2): 37.2+/−1.8% | improvement in cardiac fractional shortening [5, 7]: greater than 60% | improvement in ejection fraction [5, 7]: > 100% | degree of improvement, systemic (intraperitoneal) versus local intracardiac administration ([5]; mouse, in vivo, ip): not statistically different | scar volume ([5]; six levels of sections through left ventricle, subset of mice, p<0.05): significant reduction | left ventricle fractional shortening ([5]; three days after infarction, intracardiac treatment, n=4, 95% confidence interval, control 28.8): 39.2+/−2.34% | ejection fraction ([5]; three days after infarction, intracardiac treatment, control 44.7): 64.2+/−6.69% | size of scar (trichrome stain) ([5]; three levels of section, all treated mice): reduced | cardiomyocyte proliferation or death ([5]; three, six, eleven or fourteen days after coronary ligation): did not detect significant cardiomyocyte proliferation or death | number of c-kit, Sca-1 or Abcg2 positive cardiomyocytes ([5]; treated versus untreated hearts): no detection of any differences | cardiomyocyte cell death by TUNEL assay ([5]; twenty-four hours after ligation): striking decrease in cell death | transformation of endocardial cells to mesenchymal cells [6]: markedly enhances | interaction with PINCH (PINCH): interacted with thymosin β4 in the absence of actin
